Test results from ChEMBL document CHEMBL1201862, “PubChem BioAssay data set” (2004).
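Each compound was tested at five concentrations against cells in 96-well plates for 48 hours. Abbreviation: GI50, concentration required for 50% inhibition of growth.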 Activity calls are given as the source filed them. No stated cut-off is given here; in the data, active = GI50 up to about 1.1 µM and inactive = higher. Square brackets hold non-standard residues; d marks the D form. Peptide text beside a SMILES is read from it. * marks the point of attachment. ξ: configuration not given here. ξW = NC(Cc1c[nH]c2ccccc12)C(=O)O; X29 = O=C(O)[C@H]1CCC[C@H]1N*; ξF = NC(Cc1ccccc1)C(=O)O; Boc = CC(C)(C)OC(=O)*; ξK = NCCCCC(N)C(=O)O; ξT = CC(O)C(N)C(=O)O; tBu = CC(C)(C)*

Legend:
Assay in all cases: growth of human tumour cells (NCI), 48 h
A498 = test system: A498
CAKI-1 = test system: CAKI-1
HCT-15 = test system: HCT-15
HOP-62 = test system: HOP-62
K562 = test system: K562
KM12 = test system: KM12
MDA-MB-231 = test system: MDA-MB-231
MDA-N = test system: MDA-N
MOLT-4 = test system: MOLT-4
NCI-H23 = test system: NCI-H23
NCI/ADR-RES = test system: NCI/ADR-RES
OVCAR-5 = test system: OVCAR-5
SK-MEL-28 = test system: SK-MEL-28
SNB-19 = test system: SNB-19
T47D = test system: T47D
UACC-257 = test system: UACC-257
UO-31 = test system: UO-31
HL-60 = test system: HL-60
LOX IMVI = test system: LOX IMVI
RPMI-8226 = test system: RPMI-8226

Compound | GI50 (A498) | GI50 (CAKI-1) | GI50 (HCT-15) [µM] | GI50 (HOP-62) | GI50 (K562) | GI50 (KM12) | GI50 (MDA-MB-231) | GI50 (MDA-N) | GI50 (MOLT-4) | GI50 (NCI-H23) | GI50 (NCI/ADR-RES) | GI50 (OVCAR-5) | GI50 (SK-MEL-28) | GI50 (SNB-19) | GI50 (T47D) | GI50 (UACC-257) | GI50 (UO-31) | GI50 (HL-60) | GI50 (LOX IMVI) | GI50 (RPMI-8226)
O=C(CC(C(=O)c1cccs1)c1ccsc1)c1cccs1 (centres undefined) | 38.6 µM (inactive) | > 100 µM (inactive) | 71.3 | > 100 µM (inactive) | 37.8 µM (inactive) | 71.3 µM (inactive) | > 100 µM (inactive) | 25.8 µM (inactive) | 46.7 µM (inactive) | > 100 µM (inactive) | 31.9 µM (inactive) | > 100 µM (inactive) | 81.5 µM (inactive) | > 100 µM (inactive) | 26.3 µM (inactive) | > 100 µM (inactive) | 51.3 µM (inactive) |  |  | 
CC1(C)C2CCC1(C)C(NC(=O)CCN1CCOCC1)C2 (centres undefined) | > 100 µM (inactive) | > 100 µM (inactive) |  | > 100 µM (inactive) | > 100 µM (inactive) | > 100 µM (inactive) | > 100 µM (inactive) | > 100 µM (inactive) | > 100 µM (inactive) | > 100 µM (inactive) |  | > 100 µM (inactive) | > 100 µM (inactive) | > 100 µM (inactive) | > 100 µM (inactive) | > 100 µM (inactive) | > 100 µM (inactive) | > 100 µM (inactive) |  | 
Fc1c(F)c(C(F)(F)F)c(F)c(F)c1N/N=C/c1cn(Cc2ccccc2)c2ccccc12 | 27.9 µM (inactive) | 21.3 µM (inactive) | 25.2 | 2.24 µM (inactive) | 31 µM (inactive) | 20 µM (inactive) | 21 µM (inactive) |  | 23.3 µM (inactive) | 27.5 µM (inactive) | 24.7 µM (inactive) | 19.2 µM (inactive) | 34.8 µM (inactive) | 30.1 µM (inactive) | 23.6 µM (inactive) | 21.5 µM (inactive) | 23.4 µM (inactive) | 21.8 µM (inactive) | 22.8 µM (inactive) | 25.9 µM (inactive)
Cc1cc(=O)c2cc(/N=C/c3ccc([N+](=O)[O-])o3)ccc2o1 | > 100 µM (inactive) | > 100 µM (inactive) | 88.3 | > 100 µM (inactive) | 33.7 µM (inactive) | > 100 µM (inactive) | > 100 µM (inactive) |  | 37.4 µM (inactive) | > 100 µM (inactive) | > 100 µM (inactive) | > 100 µM (inactive) | > 100 µM (inactive) | > 100 µM (inactive) | > 100 µM (inactive) | 28.1 µM (inactive) | > 100 µM (inactive) | 57.9 µM (inactive) | 42.7 µM (inactive) | 35.5 µM (inactive)
C=Cc1c(C)c2cc3nc(c4c5[nH]c(cc6nc(cc1[nH]2)C(C)=C6CC)c(C)c5C(=O)C4C(=O)OC)C(CCC(=O)OC)C3C (centres undefined) | > 100 µM (inactive) | > 100 µM (inactive) | > 100 | > 100 µM (inactive) | > 100 µM (inactive) | > 100 µM (inactive) | > 100 µM (inactive) | > 100 µM (inactive) |  | > 100 µM (inactive) |  | > 100 µM (inactive) | > 100 µM (inactive) | > 100 µM (inactive) | > 100 µM (inactive) | > 100 µM (inactive) | > 100 µM (inactive) | > 100 µM (inactive) | > 100 µM (inactive) | > 100 µM (inactive)
O=C(c1cccnc1)N1N=C(c2ccccc2)CC1(O)c1cc(F)c(Cl)cc1Cl (centres undefined) |  | 33.3 µM (inactive) | 26.2 | 16.1 µM (inactive) | 21.4 µM (inactive) | 25.6 µM (inactive) | 15.7 µM (inactive) | 28.6 µM (inactive) | 14.5 µM (inactive) | 27 µM (inactive) | 23.5 µM (inactive) | 32.8 µM (inactive) | 25.1 µM (inactive) | 40 µM (inactive) | 12.3 µM (inactive) | 18.6 µM (inactive) | 25.6 µM (inactive) | 21.4 µM (inactive) | 15.7 µM (inactive) | 18.2 µM (inactive)
O=c1c2cc(S(=O)(=O)O)ccc2nc(COc2ccc(Oc3ccc(Cl)cc3Cl)cc2)n1C(=S)Nc1ccc(Cl)cc1 | 22.5 µM (inactive) | 27.9 µM (inactive) | 21 | 20.5 µM (inactive) | 1.06 µM (active) | 22.5 µM (inactive) |  | 22.1 µM (inactive) |  | 18.7 µM (inactive) | 17.7 µM (inactive) | 19.8 µM (inactive) |  | 33.4 µM (inactive) | 34.6 µM (inactive) | 25.4 µM (inactive) | 15.8 µM (inactive) | 0.457 µM (active) | 16.6 µM (inactive) | 26.9 µM (inactive)
CNC(=O)c1cc2nc3ccccc3c(=O)n2c2ccccc12 | > 10 µM (inactive) | > 10 µM (inactive) | > 10 | > 10 µM (inactive) | > 10 µM (inactive) | > 10 µM (inactive) | > 10 µM (inactive) |  | > 10 µM (inactive) | > 10 µM (inactive) | > 10 µM (inactive) | > 10 µM (inactive) | > 10 µM (inactive) | > 10 µM (inactive) | > 10 µM (inactive) | > 10 µM (inactive) | > 10 µM (inactive) | > 10 µM (inactive) | > 10 µM (inactive) | > 10 µM (inactive)
CCOC(=O)CC(=O)C(=O)NN=C1NCCN1 |  |  | > 100 | > 100 µM (inactive) | > 100 µM (inactive) | > 100 µM (inactive) | > 100 µM (inactive) | > 100 µM (inactive) | > 100 µM (inactive) | > 100 µM (inactive) | > 100 µM (inactive) | > 100 µM (inactive) | > 100 µM (inactive) | > 100 µM (inactive) | > 100 µM (inactive) | > 100 µM (inactive) | > 100 µM (inactive) | > 100 µM (inactive) | > 100 µM (inactive) | > 100 µM (inactive)
CN1CCN(C(=S)N(C(=O)c2ccco2)c2ccccc2)CC1 |  |  | > 100 |  | > 100 µM (inactive) | > 100 µM (inactive) | > 100 µM (inactive) | > 100 µM (inactive) | > 100 µM (inactive) | > 100 µM (inactive) |  | > 100 µM (inactive) | > 100 µM (inactive) | > 100 µM (inactive) | > 100 µM (inactive) | > 100 µM (inactive) | > 100 µM (inactive) | > 100 µM (inactive) | > 100 µM (inactive) | > 100 µM (inactive)
COc1ccc2[nH]c3c(c2c1)CC(=S)N1CCCC(CC3=O)C1 (centres undefined) | 43.1 µM (inactive) | 91 µM (inactive) | 57.7 | 87.3 µM (inactive) |  | 25.4 µM (inactive) | 50.2 µM (inactive) | 45.2 µM (inactive) |  | 47.8 µM (inactive) | 63.5 µM (inactive) | 64.9 µM (inactive) | 86.9 µM (inactive) | 35.6 µM (inactive) | 48.9 µM (inactive) | 44.9 µM (inactive) | 63.8 µM (inactive) |  |  | 64.9 µM (inactive)
CCCCC(=O)Nc1ccc2c(C)cc(-c3ccc(-c4cc(-c5ccc(C)cc5)cc(-c5ccc(-c6cc(C)c7ccc(NC(=O)CCCC)nc7n6)cc5)n4)cc3)nc2n1 | > 100 µM (inactive) | > 100 µM (inactive) | > 100 | > 100 µM (inactive) | > 100 µM (inactive) | > 100 µM (inactive) | > 100 µM (inactive) | > 100 µM (inactive) | > 100 µM (inactive) | > 100 µM (inactive) | > 100 µM (inactive) | > 100 µM (inactive) | > 100 µM (inactive) | > 100 µM (inactive) | > 100 µM (inactive) | > 100 µM (inactive) | > 100 µM (inactive) |  |  | > 100 µM (inactive)
CC(C)=CCN1CC(C)C(=O)Nc2cc(Cl)ccc21 (centres undefined) | 33.3 µM (inactive) | 18.5 µM (inactive) | 29.9 | 26.6 µM (inactive) | 96.8 µM (inactive) | 25.2 µM (inactive) | 22 µM (inactive) | 26 µM (inactive) | > 100 µM (inactive) | 21.6 µM (inactive) |  | 34 µM (inactive) | 43.3 µM (inactive) | 28.5 µM (inactive) | 24.9 µM (inactive) | 13.3 µM (inactive) | 28.6 µM (inactive) | 47.8 µM (inactive) | 16.2 µM (inactive) | 28.8 µM (inactive)
O=c1[nH]c(=O)n(COCCO)cc1-c1ccccc1 |  | > 100 µM (inactive) | > 100 | > 100 µM (inactive) | > 100 µM (inactive) | > 100 µM (inactive) | > 100 µM (inactive) | > 100 µM (inactive) | > 100 µM (inactive) | > 100 µM (inactive) | > 100 µM (inactive) | > 100 µM (inactive) | > 100 µM (inactive) | > 100 µM (inactive) | > 100 µM (inactive) | > 100 µM (inactive) | > 100 µM (inactive) | > 100 µM (inactive) | > 100 µM (inactive) | > 100 µM (inactive)
CC(OC(C)(C)C)C(NC(=O)C(CCCCNC(=O)OC(C)(C)C)NC(=O)C(Cc1c[nH]c2ccccc12)NC(=O)C(N)Cc1ccccc1)C(=O)NC(Cc1ccccc1)C(=O)N[C@@H]1CCC[C@@H]1C(=O)O (some centres undefined) (H-[ξF][ξW][ξK](Boc)[ξT](tBu)[ξF]-X29) |  | > 100 µM (inactive) | > 10 | > 100 µM (inactive) | 51.6 µM (inactive) | 19.4 µM (inactive) | 38.6 µM (inactive) | 52.1 µM (inactive) | 41.6 µM (inactive) | 34 µM (inactive) | > 100 µM (inactive) | 23.2 µM (inactive) | 75.5 µM (inactive) | 33.6 µM (inactive) | 33.8 µM (inactive) | > 100 µM (inactive) | > 100 µM (inactive) | 29 µM (inactive) | 20.8 µM (inactive) | 35.2 µM (inactive)
